This data set deals with Phospholipidosis. As to the kind of experiment: Literature-mined public compounds from Lowe et al phospholipidosis modelling dataset.

On to `CNS(=O)(=O)Cc1ccc2[nH]cc(CCN(C)C)c2c1`, for which the Phospholipidosis result is reported as “Negative”. The same measure for `CN(C)CCN(Cc1cccs1)c1ccccn1`: “Negative”. The same measure for `CN1CCN(Cc2nc3cccc4c3c([n+]2[O-])-c2ccccc2-4)CC1`: “Positive”; for `CC1=C(CC(=O)O)c2cc(F)ccc2/C1=C\c1ccc([S+](C)[O-])cc1` (centres undefined): “Negative”; for `CN(C)CCC=C1c2ccccc2CCc2c(Cl)cccc21`: “Positive”.

Take `OC(CN1CCCCC1)c1ccc(C=C2c3ccccc3-c3ccccc32)cc1` (centres undefined): the Phospholipidosis entry is recorded as “Positive”. The same measure for `CCCC[C@@H]1CC(=O)[C@]2(O)O[C@@H]3[C@@H](NC)[C@@H](O)[C@@H](NC)[C@H](O)[C@H]3O[C@@H]2O1.O=S(=O)(O)O`: “Positive”; for `CN1CCN(C2=Nc3cc(Cl)ccc3N(C)n3cccc32)CC1`: “Positive”; for `C=C1C[C@@H]1C[C@H](N)C(=O)O`: “Negative”.

`CN(C)CCC=C1c2ccccc2C=Cc2c(Cl)cccc21`: the Phospholipidosis result is listed as “Positive”. The same measure for `CCN(CC)CCn1nc2c3c(c(C)ccc31)Sc1cc(Cl)ccc1-2`: “Positive”.

Take `CCN(CC)Cc1cc(Nc2ccnc3cc(Cl)ccc23)ccc1O.Cl`: the Phospholipidosis result is listed as “Positive”. The same measure for `CC1(C)OCC(C(CS(=O)(=O)c2ccc(Oc3cccc(OC(F)(F)F)c3)cc2)NC=O)O1` (centres undefined): “Negative”. The same measure for `CC1(C)C(=O)NC(=O)N1CC(COc1ccc(-c2ccc(OC(F)(F)F)cc2)cc1)NC=O` (centres undefined): “Negative”; for `CC1(C)C(=O)NC(=O)N1CC(N)COc1ccc(-c2ccc(OC(F)(F)F)cc2)cc1` (centres undefined): “Positive”; for `CCCN[C@@H]1[C@H](C)[C@@H](O)[C@](C)(O)[C@@H](CC)OC(=O)[C@H](C)[C@@H](O[C@H]2C[C@@](C)(OC)[C@@H](O)[C@H](C)O2)[C@H](C)[C@@H](O[C@@H]2O[C@H](C)C[C@H](N(C)C)[C@H]2O)[C@](C)(O)C[C@H]1C`: “Positive”. The same measure for `CCCNCCc1ccc(NS(=O)(=O)c2ccc(OC(F)(F)F)cc2)cc1`: “Positive”; for `NC[C@H]1Cc2ccc(F)cc2[C@@H](c2ccccc2)O1`: “Positive”; for `Clc1ccccc1CNC[C@H]1CC[C@H](CNCc2ccccc2Cl)CC1`: “Positive”. With `CC1(C)OC[C@H]([C@@H](CS(=O)(=O)c2ccc(Oc3ccc(OC(F)(F)F)cc3)cc2)N(O)C=O)O1`, the Phospholipidosis entry is given as “Negative”.

In the case of `NCCc1cc(O)c(O)c(O)c1`, the Phospholipidosis entry is reported as “Positive”. The same measure for `CCC[C@@H](NC(=O)N1C(=O)C(CC)(CC)[C@@H]1Oc1ccc(C(=O)N2CCN(C)CC2)cc1)c1ccc2c(c1)OCO2`: “Positive”; for `CC1(C)NC(=O)N(C[C@@H](COc2ccc(-c3ccc(OC(F)(F)F)cc3)cc2)N(O)C=O)C1=O`: “Negative”. The same measure for `C[n+]1ccc(-c2cc[n+](C)cc2)cc1`: “Positive”.

On to `S=C=Nc1cccc2ccccc12` [1-NAPHTHYLISOTHIOCYANATE], for which the Phospholipidosis result was “Negative”. The same measure for `Cc1ccc2cc3c(ccc4ccccc43)c3c2c1CC3` [3-METHYLCHOLANTHRENE]: “Negative”; for `Nc1nc(NC2CC2)c2ncn([C@H]3C=C[C@@H](CO)C3)c2n1` [ABACAVIR]: “Negative”. For the molecule `CC(=O)Nc1ccc(O)cc1` [ACETAMINOPHEN], the Phospholipidosis entry is recorded as “Negative”. The same measure for `Oc1ncnc2[nH]ncc12` [ALLOPURINOL]: “Positive”; for `NC12CC3CC(CC(C3)C1)C2` [AMANTADINE]: “Positive”; for `Nc1c(Br)cc(Br)cc1CN[C@H]1CC[C@H](O)CC1` [AMBROXOL]: “Positive”. On to `NCC[C@H](O)C(=O)N[C@@H]1C[C@H](N)[C@@H](O[C@H]2O[C@H](CN)[C@@H](O)[C@H](O)[C@H]2O)[C@H](O)[C@H]1O[C@H]1O[C@H](CO)[C@@H](O)[C@H](N)[C@H]1O` [AMIKACIN], for which the Phospholipidosis entry is reported as “Positive”. The same measure for `O=C(O)CCCCCCNC1c2ccccc2CCc2ccccc21` [AMINEPTINE]: “Negative”; for `CCCCc1oc2ccccc2c1C(=O)c1cc(I)c(OCCN(CC)CC)c(I)c1` [AMIODARONE]: “Positive”; for `CN(C)CCC=C1c2ccccc2CCc2ccccc21` [AMITRIPTYLINE]: “Positive”. As for `CC(=O)Oc1ccccc1C(=O)O` [ASPIRIN], the Phospholipidosis entry was “Negative”.

Turning to `CN1[C@@H]2CC[C@H]1C[C@@H](OC(=O)C(CO)c1ccccc1)C2` (some centres undefined) [ATROPINE], the Phospholipidosis entry is “Positive”. The same measure for `Cl.Cl.O=C(CCN1CCN2CCCC2C1)N1c2ccccc2Sc2ccc(Cl)cc21` (centres undefined) [AZACLORZINE HYDROCHLORIDE]: “Negative”; for `CN(C)CCCN(C)[C@H]1CC[C@H]2[C@@H]3CC=C4C[C@@H](O)CC[C@]4(C)[C@H]3CC[C@]12C` [AZACOSTEROL]: “Positive”; for `[N-]=[N+]=CC(=O)OC[C@H](N)C(=O)O` [AZASERINE]: “Negative”. On to `CN1CCN(CCCCN2C(=O)CN(/N=C/c3ccc(-c4ccc(Cl)cc4)o3)C2=O)CC1.Cl.Cl` [AZIMILIDE DIHYDROCHLORIDE], for which the Phospholipidosis result was “Positive”. For `CC[C@H]1OC(=O)[C@H](C)[C@@H](O[C@H]2C[C@@](C)(OC)[C@@H](O)[C@H](C)O2)[C@H](C)[C@@H](O[C@@H]2O[C@H](C)C[C@H](N(C)C)[C@H]2O)[C@](C)(O)C[C@@H](C)CN(C)[C@H](C)[C@@H](O)[C@]1(C)O` [AZITHROMYCIN], the Phospholipidosis result is on record as “Positive”. `NC(=O)c1ccccc1` [BENZAMIDE]: the Phospholipidosis result was “Positive”. For `CC(O)(CS(=O)(=O)c1ccc(F)cc1)C(=O)Nc1ccc(C#N)c(C(F)(F)F)c1` (centres undefined) [BICALUTAMIDE], the Phospholipidosis result is given as “Negative”.

Regarding `C=CC1=C(C)/C(=C/c2[nH]c(Cc3[nH]c(/C=C4\NC(=O)C(C)=C4C=C)c(C)c3CCC(=O)O)c(CCC(=O)O)c2C)NC1=O` [BILIRUBIN], the Phospholipidosis result is listed as “Positive”. The same measure for `FC(F)(F)c1ccc(-c2ccc(OCCN3CCCC3)cc2)cc1` [BOXIDINE]: “Positive”. As to `CN(Cc1cc(Br)cc(Br)c1N)C1CCCCC1` [BROMHEXINE], the Phospholipidosis result was “Positive”. For the molecule `CC(NC(C)(C)C)C(=O)c1cccc(Cl)c1` (centres undefined) [BUPROPION], the Phospholipidosis result is listed as “Negative”. The same measure for `O=C1CC2(CCCC2)CC(=O)N1CCCCN1CCN(c2ncccn2)CC1` [BUSPIRONE]: “Negative”; for `Cn1c(=O)c2c(ncn2C)n(C)c1=O` [CAFFEINE]: “Negative”.

Turning to `NC(=O)N1c2ccccc2C=Cc2ccccc21` [CARBAMAZEPINE], the Phospholipidosis entry is “Negative”. The same measure for `ClC(Cl)(Cl)Cl` [CARBON TETRACHLORIDE]: “Negative”; for `CC(C)(O/N=C(\C(=O)N[C@@H]1C(=O)N2C(C(=O)[O-])=C(C[n+]3ccccc3)CS[C@H]12)c1csc(N)n1)C(=O)O` [CEFTAZIDIME]: “Negative”; for `O=C(N[C@H](CO)[C@H](O)c1ccc([N+](=O)[O-])cc1)C(Cl)Cl` [CHLORAMPHENICOL]: “Positive”.

Regarding `CN1CCN(C(c2ccccc2)c2ccc(Cl)cc2)CC1` (centres undefined) [CHLORCYCLIZINE], the Phospholipidosis entry was “Positive”. The same measure for `ClC(Cl)Cl` [CHLOROFORM]: “Negative”; for `CC(CCCN(CCCl)CCCl)Nc1ccnc2cc(Cl)ccc12` (centres undefined) [CHLOROQUINE MUSTARD]: “Positive”. The same measure for `CCN(CC)CCCC(C)Nc1ccnc2cc(Cl)ccc12` (centres undefined) [CHLOROQUINE]: “Positive”; for `CC(C)(N)Cc1ccc(Cl)cc1` [CHLORPHENTERMINE]: “Positive”; for `CN(C)CCCN1c2ccccc2Sc2ccc(Cl)cc21` [CHLORPROMAZINE]: “Positive”. With `CN(C)[C@@H]1C(O)=C(C(N)=O)C(=O)[C@@]2(O)C(O)=C3C(=O)c4c(O)ccc(Cl)c4[C@@](C)(O)[C@H]3C[C@@H]12` [CHLORTETRACYCLINE], the Phospholipidosis entry was “Negative”. The same measure for `CN/C(=N/CCSCc1nc[nH]c1C)NC#N` [CIMETIDINE]: “Negative”.

For the molecule `CC(C)(Oc1ccc(C2CC2(Cl)Cl)cc1)C(=O)O` (centres undefined) [CIPROFIBRATE], the Phospholipidosis entry is reported as “Negative”. Consider `CN(C)CCCC1(c2ccc(F)cc2)OCc2cc(C#N)ccc21` (centres undefined) [CITALOPRAM], for which the Phospholipidosis entry is given as “Positive”. The same measure for `CC[C@H]1OC(=O)[C@H](C)[C@@H](O[C@H]2C[C@@](C)(OC)[C@@H](O)[C@H](C)O2)[C@H](C)[C@@H](O[C@@H]2O[C@H](C)C[C@H](N(C)C)[C@H]2O)[C@](C)(OC)C[C@@H](C)C(=O)[C@H](C)[C@@H](O)[C@]1(C)O` [CLARITHROMYCIN]: “Negative”; for `CCC[C@@H]1C[C@@H](C(=O)N[C@@H]([C@H]2O[C@H](SC)[C@H](O)[C@@H](O)[C@H]2O)[C@H](C)Cl)N(C)C1` [CLINDAMYCIN]: “Positive”. In the case of `CC1(C)N=C(N)N=C(N)N1OCc1ccc(Cl)c(Cl)c1` [CLOCIGUANIL], the Phospholipidosis entry is on record as “Positive”. Regarding `CCOC(=O)C(C)(C)Oc1ccc(Cl)cc1` [CLOFIBRATE], the Phospholipidosis result is “Negative”. As to `CCOC(=O)NC(C)(C)Cc1ccc(Cl)cc1` [CLOFOREX], the Phospholipidosis entry was “Negative”. The same measure for `N#Cc1ccc(NC(=O)N=C(N)N)cc1Cl` [CLOGUANAMIL]: “Positive”; for `CN(C)CCCC1c2ccccc2Nc2ccc(Cl)cc21` (centres undefined) [CLOMACRAN]: “Positive”; for `CN(C)CCCN1c2ccccc2CCc2ccc(Cl)cc21` [CLOMIPRAMINE]: “Positive”.

For `CN1CCN(C2=Nc3cc(Cl)ccc3Nc3ccccc32)CC1` [CLOZAPINE], the Phospholipidosis entry was “Positive”. As for `COc1cc2c(c(OC)c1OC)-c1ccc(OC)c(=O)cc1[C@@H](NC(C)=O)CC2` [COLCHICINE], the Phospholipidosis result is “Negative”.
